Results published in patent publication US20060223846A1, “Aza-bridged-bicyclic amino acid derivatives as alpha4 integrin antagonists” (priority 2005, published 2006).

Legend:
human α4β7 = target: T1, human α4β7 (Homo sapiens, UniProt P13612+P26010); assay: α4β7-K562 Cell Adhesion Assay (α4β7 Mediated Adhesion/VCAM-1); assay type: cell-based; conditions: K562 cells expressing human α4β7 on recombinant hVCAM-1; read-out: α4β7 IC50
T1 construct: expressed in transfected cells
T1 sequence (P13612 34-1032): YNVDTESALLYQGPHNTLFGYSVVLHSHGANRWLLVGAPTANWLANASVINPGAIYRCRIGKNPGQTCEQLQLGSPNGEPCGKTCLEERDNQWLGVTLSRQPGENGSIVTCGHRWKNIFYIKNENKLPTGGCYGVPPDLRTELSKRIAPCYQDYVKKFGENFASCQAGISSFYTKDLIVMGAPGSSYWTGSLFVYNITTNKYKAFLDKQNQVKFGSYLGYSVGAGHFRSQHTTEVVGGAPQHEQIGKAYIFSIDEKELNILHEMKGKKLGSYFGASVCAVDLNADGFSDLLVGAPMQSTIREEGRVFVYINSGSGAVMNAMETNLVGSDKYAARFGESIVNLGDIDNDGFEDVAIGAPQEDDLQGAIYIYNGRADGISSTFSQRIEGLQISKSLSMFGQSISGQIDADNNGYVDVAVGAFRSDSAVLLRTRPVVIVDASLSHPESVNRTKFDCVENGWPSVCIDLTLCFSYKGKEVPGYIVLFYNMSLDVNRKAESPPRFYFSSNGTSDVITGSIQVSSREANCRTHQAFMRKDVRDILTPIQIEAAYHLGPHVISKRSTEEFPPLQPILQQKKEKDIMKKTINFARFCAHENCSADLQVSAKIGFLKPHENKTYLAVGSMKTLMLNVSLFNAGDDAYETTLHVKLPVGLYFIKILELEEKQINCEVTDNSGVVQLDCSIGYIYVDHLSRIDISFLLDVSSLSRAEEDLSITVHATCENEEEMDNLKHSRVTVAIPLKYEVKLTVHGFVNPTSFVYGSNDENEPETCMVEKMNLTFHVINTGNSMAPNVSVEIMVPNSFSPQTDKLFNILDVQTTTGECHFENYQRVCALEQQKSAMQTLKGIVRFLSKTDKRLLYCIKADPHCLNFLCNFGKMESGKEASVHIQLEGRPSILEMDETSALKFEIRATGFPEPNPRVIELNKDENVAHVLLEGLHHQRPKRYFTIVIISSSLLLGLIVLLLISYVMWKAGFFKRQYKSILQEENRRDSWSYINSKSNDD
T1 sequence (P26010 20-798): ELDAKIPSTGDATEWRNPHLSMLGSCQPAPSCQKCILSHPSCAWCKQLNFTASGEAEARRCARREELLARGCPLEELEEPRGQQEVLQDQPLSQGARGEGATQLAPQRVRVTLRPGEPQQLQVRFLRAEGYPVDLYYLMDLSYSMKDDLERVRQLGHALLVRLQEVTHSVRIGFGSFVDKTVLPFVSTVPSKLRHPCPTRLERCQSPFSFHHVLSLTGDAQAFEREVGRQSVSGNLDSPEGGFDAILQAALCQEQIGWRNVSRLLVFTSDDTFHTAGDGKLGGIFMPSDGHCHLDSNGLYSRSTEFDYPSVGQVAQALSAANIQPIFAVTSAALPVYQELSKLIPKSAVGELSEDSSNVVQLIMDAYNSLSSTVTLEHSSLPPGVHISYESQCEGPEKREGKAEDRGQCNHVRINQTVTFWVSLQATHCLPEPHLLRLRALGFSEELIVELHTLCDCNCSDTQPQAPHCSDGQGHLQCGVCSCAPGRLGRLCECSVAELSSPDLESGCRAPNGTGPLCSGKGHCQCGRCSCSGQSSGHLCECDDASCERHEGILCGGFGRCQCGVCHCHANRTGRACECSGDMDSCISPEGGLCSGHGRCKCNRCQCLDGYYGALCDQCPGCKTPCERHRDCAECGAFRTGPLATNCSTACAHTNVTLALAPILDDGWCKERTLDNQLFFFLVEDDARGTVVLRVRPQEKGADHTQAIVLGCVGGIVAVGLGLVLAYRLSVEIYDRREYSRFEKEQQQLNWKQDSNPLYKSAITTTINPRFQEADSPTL
Method: (§1) α4β7-K562 Cell Adhesion Assay (α4β7 Mediated Adhesion/VCAM-1) Immulon 96 well plates (Dynex) were coated with 100 μL recombinant hVCAM-1 at 4.0 μg/mL in 0.05 M NaCO3 buffer pH 9.0 overnight at 4° C. (R&D System). Plates were washed 3 times in PBS with 1% BSA and blocked for 1 h @ room temperature in this buffer. PBS was removed and compounds to be tested (50 μL) were added at 2× concentration. A stable cell line of K562 cells expressing human α4β7, (50 μL at 2×10^6/mL) labeled with 5 μM Calcein AM (Molecular Probes) for 1 h at 37° C., were added to each well and allowed to adhere for 1 h at room temperature. Plates were washed 3× in PBS+1% BSA and cells were lysed for 15 minutes in 100 μL of 1 M Tris pH 8.0 with 1% SDS. The plate was read at 485 nm excitation and 530 nm emission.

α4β1 = α4β1 (Homo sapiens, UniProt P05556+P13612); assay: Ramos Cell Adhesion Assay (α4β1 Mediated Adhesion/VCAM-1); assay type: cell-based; set-up: Ramos cells, (50 μL at 2×10^6/mL) labeled with 5 μM Calcein AM; endogenous in cells; host or cells: Ramos cells; conditions: Ramos cells on recombinant hVCAM-1; read-out: α4β1 IC50
Method: as §1, with “Ramos” for “α4β7-K562”, “α4β1” for “(α4β7”, “[…]” for “96”, “Systems).” for “System).”, “Ramos cells,” for “A stable cell line of K562 cells expressing human α4β7,”

Chain of α4β1 (P05556 21-798, one chain of several): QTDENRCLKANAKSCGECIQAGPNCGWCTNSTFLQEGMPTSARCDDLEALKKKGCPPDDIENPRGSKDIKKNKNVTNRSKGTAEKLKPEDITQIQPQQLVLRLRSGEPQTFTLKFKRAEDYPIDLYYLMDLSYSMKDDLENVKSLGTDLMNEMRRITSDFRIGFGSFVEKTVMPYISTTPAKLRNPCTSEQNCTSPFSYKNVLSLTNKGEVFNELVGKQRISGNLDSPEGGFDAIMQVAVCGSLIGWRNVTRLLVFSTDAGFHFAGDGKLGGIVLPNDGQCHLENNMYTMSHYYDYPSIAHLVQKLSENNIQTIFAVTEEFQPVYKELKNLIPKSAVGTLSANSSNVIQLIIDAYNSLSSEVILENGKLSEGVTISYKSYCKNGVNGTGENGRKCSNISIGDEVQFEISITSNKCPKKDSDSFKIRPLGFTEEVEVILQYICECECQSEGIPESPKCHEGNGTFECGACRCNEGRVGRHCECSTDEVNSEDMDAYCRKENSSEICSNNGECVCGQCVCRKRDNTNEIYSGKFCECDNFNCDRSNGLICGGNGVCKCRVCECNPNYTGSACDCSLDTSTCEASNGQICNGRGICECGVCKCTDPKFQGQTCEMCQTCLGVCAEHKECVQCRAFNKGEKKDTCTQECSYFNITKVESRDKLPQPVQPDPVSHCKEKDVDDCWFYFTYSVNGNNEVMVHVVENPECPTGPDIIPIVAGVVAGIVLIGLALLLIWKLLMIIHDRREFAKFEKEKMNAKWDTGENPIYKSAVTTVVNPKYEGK

O=C(Nc1ccc(CC(NC(=O)C2C3CCC(CC3)N2C(=O)c2ccccc2C(F)(F)F)C(=O)O)cc1)c1c(Cl)cncc1Cl (centres unmarked) [Cpd 12]
IC50 (human α4β7): 739 nM | IC50 (α4β1): 460 nM

O=C(Nc1ccc(CC(NC(=O)C2C3CCC(CC3)N2C(=O)CCc2ccc(C(F)(F)F)cc2)C(=O)O)cc1)c1c(Cl)cncc1Cl (centres unmarked) [Cpd 50]
IC50 (human α4β7): 75 nM | IC50 (α4β1): 6 nM

O=C(Nc1ccc(CC(NC(=O)C2C3CCC(CC3)N2C(=O)NCc2ccccc2)C(=O)O)cc1)c1c(Cl)cncc1Cl (centres unmarked) [Cpd 25]
IC50 (human α4β7): 379 nM | IC50 (α4β1): 72 nM

COc1ccc(OC)c(C(=O)N2C3CCC(CC3)C2C(=O)NC(Cc2ccc(NC(=O)c3c(Cl)cncc3Cl)cc2)C(=O)O)c1 (centres unmarked) [Cpd 8]
IC50 (human α4β7): 1020 nM | IC50 (α4β1): 188 nM

O=C(Nc1ccc(CC(NC(=O)C2C3CCC(CC3)N2C(=O)CCCC2CCCCC2)C(=O)O)cc1)c1c(Cl)cncc1Cl (centres unmarked) [Cpd 37]
IC50 (human α4β7): 254 nM | IC50 (α4β1): 41 nM

O=C(Nc1ccc(CC(NC(=O)C2C3CCC(CC3)N2C(=O)Nc2ccccc2)C(=O)O)cc1)c1c(Cl)cncc1Cl (centres unmarked) [Cpd 20]
IC50 (human α4β7): 287 nM | IC50 (α4β1): 259 nM

CCCCCC12CCC(C(=O)N3C4CCC(CC4)C3C(=O)NC(Cc3ccc(NC(=O)c4c(Cl)cncc4Cl)cc3)C(=O)O)(CC1)CC2 (mixture of isomers) [Cpd 13]
IC50 (human α4β7): > 5000 nM | IC50 (α4β1): > 5000 nM

O=C(Nc1ccc(CC(NC(=O)C2C3CCC(CC3)N2C(=O)Cc2cccnc2)C(=O)O)cc1)c1c(Cl)cncc1Cl (centres unmarked) [Cpd 5]
IC50 (human α4β7): 62 nM | IC50 (α4β1): 20 nM

O=C(Nc1ccc(CC(NC(=O)C2C3CCC(CC3)N2C(=O)Nc2cccc(Cl)c2)C(=O)O)cc1)c1c(Cl)cncc1Cl (centres unmarked) [Cpd 23]
IC50 (human α4β7): 444 nM | IC50 (α4β1): 248 nM

O=C(Nc1ccc(CC(NC(=O)C2C3CCC(CC3)N2C(=O)Nc2ccc(Cl)cc2)C(=O)O)cc1)c1c(Cl)cncc1Cl (centres unmarked) [Cpd 24]
IC50 (human α4β7): 743 nM | IC50 (α4β1): 591 nM

CC(C)(C)CC(=O)N1C2CCC(CC2)C1C(=O)NC(Cc1ccc(NC(=O)c2c(Cl)cncc2Cl)cc1)C(=O)O (centres unmarked) [Cpd 27]
IC50 (human α4β7): 834 nM | IC50 (α4β1): 386 nM

O=C(Nc1ccc(CC(NC(=O)C2C3CCC(CC3)N2C(=O)Cc2csc3ccccc23)C(=O)O)cc1)c1c(Cl)cncc1Cl (centres unmarked) [Cpd 62]
IC50 (human α4β7): 565 nM | IC50 (α4β1): 292 nM

O=C(Nc1ccc(CC(NC(=O)C2C3CCC(CC3)N2C(=O)C=Cc2ccc3c(c2)OCO3)C(=O)O)cc1)c1c(Cl)cncc1Cl (centres unmarked) [Cpd 46]
IC50 (human α4β7): 476 nM | IC50 (α4β1): > 5000 nM

Cc1ccc(NC(=O)N2C3CCC(CC3)[C@H]2C(=O)N[C@@H](Cc2ccc(NC(=O)c3c(Cl)cncc3Cl)cc2)C(=O)O)cc1 [Cpd 21, 3-{4-[(3,5-dichloro-pyridine-4-carbonyl)-amino]-phenyl}-2-[(2-p-tolylcarbamoyl-2-aza-bicyclo[2.2.2]octane-3-carbonyl)-amino]-propionic acid]
IC50 (human α4β7): 124 nM | IC50 (α4β1): 585 nM

O=C(Nc1ccc(CC(NC(=O)C2C3CCC(CC3)N2C(=O)Cc2ccsc2)C(=O)O)cc1)c1c(Cl)cncc1Cl (mixture of isomers) [Cpd 60]
IC50 (human α4β7): 233 nM | IC50 (α4β1): 156 nM

O=C(Nc1ccc(CC(NC(=O)C2C3CCC(CC3)N2C(=O)c2ccccc2F)C(=O)O)cc1)c1c(Cl)cncc1Cl (mixture of isomers) [Cpd 9]
IC50 (human α4β7): 151 nM | IC50 (α4β1): 436 nM

O=C(Nc1ccc(CC(NC(=O)C2C3CCC(CC3)N2C(=O)CCc2ccc(Cl)cc2)C(=O)O)cc1)c1c(Cl)cncc1Cl (centres unmarked) [Cpd 51]
IC50 (human α4β7): 24 nM | IC50 (α4β1): 3 nM

CC(C)(C)OC(=O)N1CCN(CCC(=O)N2C3CCC(CC3)C2C(=O)NC(Cc2ccc(NC(=O)c3c(Cl)cncc3Cl)cc2)C(=O)O)CC1 (centres unmarked) [Cpd 35]
IC50 (human α4β7): > 5000 nM | IC50 (α4β1): 122 nM

O=C(Nc1ccc(CC(NC(=O)C2C3CCC(CC3)N2C(=O)CCC2CCCC2)C(=O)O)cc1)c1c(Cl)cncc1Cl (centres unmarked) [Cpd 28]
IC50 (human α4β7): 150 nM | IC50 (α4β1): 89 nM

O=C(Nc1ccc(CC(NC(=O)C2C3CCC(CC3)N2C(=O)c2cc(Cl)cc(Cl)c2)C(=O)O)cc1)c1c(Cl)cncc1Cl (centres unmarked) [Cpd 10]
IC50 (human α4β7): 185 nM | IC50 (α4β1): 842 nM

COc1ccccc1C=CC(=O)N1C2CCC(CC2)C1C(=O)NC(Cc1ccc(NC(=O)c2c(Cl)cncc2Cl)cc1)C(=O)O (centres unmarked) [Cpd 45]
IC50 (human α4β7): 36 nM | IC50 (α4β1): 3 nM

O=C(Nc1ccc(CC(NC(=O)C2C3CCC(CC3)N2C(=O)Cc2ccccn2)C(=O)O)cc1)c1c(Cl)cncc1Cl (centres unmarked) [Cpd 4]
IC50 (human α4β7): 32 nM | IC50 (α4β1): 25 nM

O=C(Nc1ccc(CC(NC(=O)C2C3CCC(CC3)N2C(=O)CCN2CCNCC2)C(=O)O)cc1)c1c(Cl)cncc1Cl (centres unmarked) [Cpd 53]
IC50 (human α4β7): 141 nM | IC50 (α4β1): 3 nM

Cc1ccnn1CC(=O)N1C2CCC(CC2)C1C(=O)NC(Cc1ccc(NC(=O)c2c(Cl)cncc2Cl)cc1)C(=O)O (centres unmarked) [Cpd 15]
IC50 (human α4β7): 39 nM | IC50 (α4β1): 69 nM

CN(C)c1ccc(CC(=O)N2C3CCC(CC3)C2C(=O)NC(Cc2ccc(NC(=O)c3c(Cl)cncc3Cl)cc2)C(=O)O)cc1 (centres unmarked) [Cpd 56]
IC50 (human α4β7): 23 nM | IC50 (α4β1): 2 nM

COc1cccc(CCC(=O)N2C3CCC(CC3)C2C(=O)NC(Cc2ccc(NC(=O)c3c(Cl)cncc3Cl)cc2)C(=O)O)c1 (centres unmarked) [Cpd 49]
IC50 (human α4β7): 9 nM | IC50 (α4β1): 1 nM

O=C(Nc1ccc(CC(NC(=O)C2C3CCC(CC3)N2C(=O)c2c(Cl)cccc2Cl)C(=O)O)cc1)c1c(Cl)cncc1Cl (centres unmarked) [Cpd 14]
IC50 (human α4β7): > 5000 nM | IC50 (α4β1): > 5000 nM

COc1ccccc1CC(=O)N1C2CCC(CC2)C1C(=O)NC(Cc1ccc(NC(=O)c2c(Cl)cncc2Cl)cc1)C(=O)O (centres unmarked) [Cpd 29]
IC50 (human α4β7): 27 nM | IC50 (α4β1): 28 nM

O=C(Nc1ccc(CC(NC(=O)C2C3CCC(CC3)N2C(=O)CCc2cccnc2)C(=O)O)cc1)c1c(Cl)cncc1Cl (centres unmarked) [Cpd 65]
IC50 (human α4β7): 10 nM | IC50 (α4β1): 3 nM

O=C(Nc1ccc(CC(NC(=O)C2C3CCC(CC3)N2C(=O)OCc2ccccc2)C(=O)O)cc1)c1c(Cl)cncc1Cl (centres unmarked) [Cpd 64]
IC50 (human α4β7): 24 nM | IC50 (α4β1): 9 nM

Cc1ccc(CCN2C3CCC(CC3)C2C(=O)NC(Cc2ccc(NC(=O)c3c(Cl)cncc3Cl)cc2)C(=O)O)cc1 (centres unmarked) [Cpd 58]
IC50 (human α4β7): 16 nM | IC50 (α4β1): 201 nM
